# Earlier results in patent US20260337593A1, “METHOD AND MEANS FOR ENGINEERING NON-RIBOSOMAL PEPTIDES” (JOHANN WOLFGANG GOETHE-UNIVERSITÄT FRANKFURT AM MAIN, priority 2022, published 2026).
# Target: Mycobacterium tuberculosis proteasome (Mycobacterium tuberculosis, UniProt P9WHT9)
# Conditions: role: inhibitor; literature reference 60
# Chain of Mycobacterium tuberculosis proteasome (P9WHT9 whole entry, looked up): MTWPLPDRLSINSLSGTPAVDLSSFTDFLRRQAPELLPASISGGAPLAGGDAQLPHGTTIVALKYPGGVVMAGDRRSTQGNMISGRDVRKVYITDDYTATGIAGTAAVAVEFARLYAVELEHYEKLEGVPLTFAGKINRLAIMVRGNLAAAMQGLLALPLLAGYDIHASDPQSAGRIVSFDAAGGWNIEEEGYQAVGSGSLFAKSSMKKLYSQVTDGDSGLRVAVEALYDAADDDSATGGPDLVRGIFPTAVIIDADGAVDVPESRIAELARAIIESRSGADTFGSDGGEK
smiles,measurement,value
CCCCCCCCC[C@@H](O)CC(=O)N[C@@H](CC(N)=O)C(=O)N[C@@H](CCC(N)=O)C(=O)N[C@H](C=O)CC(C)C [fellutamide B],binding of the active site's threonine,reversible binding
